Reference: PubChem BioAssay (NCI)
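Interpolation was linear, between the two tested concentrations surrounding the appropriate level; five concentrations were tested over 48 hours in 96-well plates. GI50 = concentration required for 50% inhibition of growth. TGI is the concentration that stops growth completely.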

How the values were obtained:
Experiment in all cases: NCI tumour cell line growth inhibition, 48 h
[1] = system: TK-10 renal
[2] = system: UACC-62 melanoma
[3] = system: SK-MEL-5 melanoma
[4] = system: 786-0 renal
[5] = system: UACC-257 melanoma
[6] = system: U251 CNS
[7] = system: OVCAR-3 ovarian
[8] = system: KM12 colon
[9] = system: BT-549 breast
[10] = system: ACHN renal
[11] = system: NCI-H226 lung
[12] = system: LOX IMVI melanoma
[13] = system: MOLT-4 leukemia
[14] = system: HL-60(TB) leukemia
[15] = system: COLO 205 colon
[16] = system: MDA-MB-231 breast
[17] = system: NCI/ADR-RES ovarian
[18] = system: OVCAR-4 ovarian
[19] = system: OVCAR-5 ovarian
[20] = system: A549 NSCLC
[21] = system: SF-539 CNS
[22] = system: HCT-116 colon
[23] = system: MALME-3M melanoma
[24] = system: A498 renal
[25] = system: HT29 colon
[26] = system: CAKI-1 renal
[27] = system: SK-OV-3 ovarian
[28] = system: SW-620 colon
[29] = system: RXF 393 renal
[30] = system: SNB-19 CNS
[31] = system: K-562 leukemia
[32] = system: SF-268 CNS
[33] = system: HOP-62 NSCLC
[34] = system: SF-295 CNS
[35] = system: MCF7 breast
[36] = system: MDA-MB-435
[37] = system: HCT-15 colon
[38] = system: PC-3 prostate
[39] = system: NCI-H522 lung
[40] = system: HCC-2998 colon
[41] = system: IGROV1 ovarian
[42] = system: SNB-75 CNS
[43] = system: SN12C renal
[44] = system: RPMI-8226 leukemia
[45] = system: SK-MEL-2 melanoma
[46] = system: NCI-H460 lung
[47] = system: SK-MEL-28 melanoma
[48] = system: M14 melanoma
[49] = system: T-47D breast
[50] = system: OVCAR-8 ovarian
[51] = system: HS 578T breast
[52] = system: DU-145 prostate
[53] = system: UO-31 renal
[54] = system: NCI-H23 lung
[55] = system: CCRF-CEM leukemia
[56] = system: HOP-92 NSCLC
[57] = system: EKVX NSCLC
[58] = system: SR leukemia

Structure (SMILES): CN=c1ccc2nc3ccc(N)cc3sc-2c1
- GI50 [1]: 6.96 µM
- TGI [1]: 32.6 µM
- GI50 [2]: 2.61 µM
- TGI [2]: 14 µM
- GI50 [3]: 0.448 µM
- TGI [3]: 1.88 µM
- GI50 [4]: 10.5 µM
- TGI [4]: 25.9 µM
- GI50 [5]: 1.18 µM
- TGI [5]: 5.04 µM
- GI50 [6]: 1.36 µM
- TGI [6]: 10.2 µM
- GI50 [7]: 1.02 µM
- TGI [7]: 13.8 µM
- GI50 [8]: 2.07 µM
- TGI [8]: 20.1 µM
- GI50 [9]: 11.5 µM
- TGI [9]: 44.4 µM
- GI50 [10]: 2.25 µM
- TGI [10]: 17.4 µM
- GI50 [11]: 15.2 µM
- TGI [11]: 41.4 µM
- GI50 [12]: 1.87 µM
- TGI [12]: 9.58 µM
- GI50 [13]: 1.77 µM
- TGI [13]: 6.86 µM
- GI50 [14]: 0.354 µM
- TGI [14]: 1.67 µM
- GI50 [15]: 2.57 µM
- TGI [15]: 12.2 µM
- GI50 [16]: 0.7 µM
- TGI [16]: 14.3 µM
- GI50 [17]: 1.6 µM
- TGI [17]: 8.44 µM
- GI50 [18]: 0.689 µM
- TGI [18]: 7.07 µM
- GI50 [19]: 9.54 µM
- TGI [19]: 23.7 µM
- GI50 [20]: 0.714 µM
- TGI [20]: 13.3 µM
- GI50 [21]: 1.75 µM
- TGI [21]: 5.86 µM
- GI50 [22]: 1.29 µM
- TGI [22]: 10.3 µM
- GI50 [23]: 1.09 µM
- TGI [23]: 3.45 µM
- GI50 [24]: 79.5 µM
- TGI [24]: > 100 µM
- GI50 [25]: 8.44 µM
- TGI [25]: 34.3 µM
- GI50 [26]: 2.36 µM
- TGI [26]: 12.4 µM
- GI50 [27]: 5.03 µM
- TGI [27]: 24.7 µM
- GI50 [28]: 2.89 µM
- TGI [28]: 20.2 µM
- GI50 [29]: 8.29 µM
- TGI [29]: 23.9 µM
- GI50 [30]: 3.25 µM
- TGI [30]: > 100 µM
- GI50 [31]: 1.12 µM
- TGI [31]: 16.7 µM
- GI50 [32]: 2.84 µM
- TGI [32]: 17.1 µM
- GI50 [33]: 6.8 µM
- TGI [33]: 27.3 µM
- GI50 [34]: 0.962 µM
- TGI [34]: 3.79 µM
- GI50 [35]: 1.63 µM
- TGI [35]: 6.5 µM
- GI50 [36]: 1.42 µM
- TGI [36]: 3.24 µM
- GI50 [37]: 1.62 µM
- TGI [37]: 68 µM
- GI50 [38]: 0.276 µM
- TGI [38]: 8.85 µM
- GI50 [39]: 1.33 µM
- TGI [39]: 7.97 µM
- GI50 [40]: 4.32 µM
- TGI [40]: 38.6 µM
- GI50 [41]: 2.54 µM
- TGI [41]: 6.24 µM
- GI50 [42]: 10.8 µM
- TGI [42]: 28.7 µM
- GI50 [43]: 2.47 µM
- TGI [43]: 12.5 µM
- GI50 [44]: 0.32 µM
- TGI [44]: 18 µM
- GI50 [45]: 11 µM
- TGI [45]: 30.9 µM
- GI50 [46]: 3.86 µM
- TGI [46]: > 100 µM
- GI50 [47]: 7.36 µM
- TGI [47]: 24.1 µM
- GI50 [48]: 2.04 µM
- TGI [48]: 10.8 µM
- GI50 [49]: 1.69 µM
- TGI [49]: 13.2 µM
- GI50 [50]: 1.45 µM
- TGI [50]: 10.3 µM
- GI50 [51]: 17 µM
- TGI [51]: 59.6 µM
- GI50 [52]: 10.7 µM
- TGI [52]: 23.5 µM
- GI50 [53]: 4.56 µM
- TGI [53]: 21.2 µM
- GI50 [54]: 1.83 µM
- TGI [54]: 12.9 µM
- GI50 [55]: 0.584 µM
- TGI [55]: 17.9 µM

Structure (SMILES): CCOC(=O)C1=C(C)N(c2ccc(Cl)cc2)[C@]2(C#N)C(O)=C(Cl)C(Cl)=C(O)[C@]12C#N
- GI50 [1]: 65.4 µM
- TGI [1]: > 100 µM
- GI50 [3]: > 100 µM
- TGI [3]: > 100 µM
- GI50 [4]: > 100 µM
- TGI [4]: > 100 µM
- GI50 [5]: > 100 µM
- TGI [5]: > 100 µM
- GI50 [6]: > 100 µM
- TGI [6]: > 100 µM
- GI50 [7]: 65 µM
- TGI [7]: > 100 µM
- GI50 [8]: 47.9 µM
- TGI [8]: > 100 µM
- GI50 [56]: 78.2 µM
- TGI [56]: > 100 µM
- GI50 [9]: 1.57 µM
- TGI [9]: 33.4 µM
- GI50 [57]: 6.24 µM
- TGI [57]: 43.2 µM
- GI50 [10]: 31.6 µM
- TGI [10]: > 100 µM
- GI50 [11]: > 100 µM
- TGI [11]: > 100 µM
- GI50 [12]: 4.95 µM
- TGI [12]: > 100 µM
- GI50 [13]: > 100 µM
- TGI [13]: > 100 µM
- GI50 [14]: 88.2 µM
- TGI [14]: > 100 µM
- GI50 [15]: 59.6 µM
- TGI [15]: > 100 µM
- GI50 [16]: 38.8 µM
- TGI [16]: > 100 µM
- GI50 [18]: > 100 µM
- TGI [18]: > 100 µM
- GI50 [20]: > 100 µM
- TGI [20]: > 100 µM
- GI50 [21]: 8.61 µM
- TGI [21]: 96.8 µM
- GI50 [22]: 90 µM
- TGI [22]: > 100 µM
- GI50 [23]: > 100 µM
- TGI [23]: > 100 µM
- GI50 [24]: > 100 µM
- TGI [24]: > 100 µM
- GI50 [25]: 51.9 µM
- TGI [25]: > 100 µM
- GI50 [26]: 38 µM
- TGI [26]: > 100 µM
- GI50 [27]: 69.6 µM
- TGI [27]: > 100 µM
- GI50 [28]: 66.3 µM
- TGI [28]: > 100 µM
- GI50 [29]: > 100 µM
- TGI [29]: > 100 µM
- GI50 [58]: 20.6 µM
- TGI [58]: > 100 µM
- GI50 [30]: > 100 µM
- TGI [30]: > 100 µM
- GI50 [31]: 21.5 µM
- TGI [31]: > 100 µM
- GI50 [32]: > 100 µM
- TGI [32]: > 100 µM
- GI50 [33]: > 100 µM
- TGI [33]: > 100 µM
- GI50 [34]: > 100 µM
- TGI [34]: > 100 µM
- GI50 [35]: > 100 µM
- TGI [35]: > 100 µM
- GI50 [36]: 44.8 µM
- TGI [36]: > 100 µM
- GI50 [37]: 45.8 µM
- TGI [37]: > 100 µM
- GI50 [39]: 56.5 µM
- TGI [39]: > 100 µM
- GI50 [41]: > 100 µM
- TGI [41]: > 100 µM
- GI50 [42]: 26.1 µM
- TGI [42]: 83 µM
- GI50 [43]: > 100 µM
- TGI [43]: > 100 µM
- GI50 [44]: 48.6 µM
- TGI [44]: > 100 µM
- GI50 [45]: > 100 µM
- TGI [45]: > 100 µM
- GI50 [46]: > 100 µM
- TGI [46]: > 100 µM
- GI50 [47]: > 100 µM
- TGI [47]: > 100 µM
- GI50 [48]: 49.7 µM
- TGI [48]: > 100 µM
- GI50 [49]: 16.9 µM
- TGI [49]: 81 µM
- GI50 [50]: > 100 µM
- TGI [50]: > 100 µM
- GI50 [51]: > 100 µM
- TGI [51]: > 100 µM
- GI50 [52]: 0.339 µM
- TGI [52]: 24.5 µM
- GI50 [53]: 53.8 µM
- TGI [53]: > 100 µM
- GI50 [54]: > 100 µM
- TGI [54]: > 100 µM
- GI50 [55]: 25.6 µM
- TGI [55]: 75.9 µM
